Data on one substance can be found in patent US20030198696A1, “Pesticide composition of plant oils and fish oils” (priority 2000, published 2003).

The experiment relates to citrus greasy spot. Nature of the experiment: Test for citrus greasy spot control. The experiment is classed as in vivo. The note with it: treatment amounts as printed in 250 gallons of water per acre, untreated control 0.510. The text has this: Test for citrus greasy spot control. Treatments consisted of the following amounts of compounds in 250 gallons of water per acre: […]

For Copper, the “Disease Incidence” value is reported as 0.050.
